We go through four compounds from patent US20100056525A1, “5- AND 6- SUBSTITUTED BENZIMIDAZOLE THIOPHENE COMPOUNDS” (priority 2006, published 2010).

The test system of assay [1] is HCT-116 (human colon) cells. Put plainly: Cell-Titer Glo Cell Growth Inhibition Assay. Particulars: HCT-116 cells, 72 h incubation, CellTiter-Glo, read-out: HCT116 IC50. The assay is classed as cell-based. The protocol: A549-L (human lung), Colo 205 (human colon), HCT-116 (human colon), HT29 (human colon), MX-1 (human breast), SKOV3 (human ovary) and P388 (murine leukemia) cell lines were cultured in RPM11640 containing 10% fetal bovine serum at 37° C. in a 5% CO2 incubator. Cell lines were split into T75 flasks (Falcon #353136) two to three days prior to assay set up at density which yields approximately 70-80% confluency at time of harvest for assay. Cells were harvested using 0.25% trypsin with EDTA (Glibco/Invitrogen #25200-056), Cell counts were performed on cell suspensions using Trypan Blue exclusion staining, cells were then plated in 105 µL of culture media per well at the following densities in 96 well Costar #3916 black flat bottom plates: A549-L 500 cells/well, Colo205 500 cells/well, HCT-116 500 cells/well, HT29 500 cells/well, MX-1 500 cells/well, SKOV3 500 cells/well and P388 250 cells/well. All plates were placed at 5% CO2 37° C. overnight and then test compounds were added the following day. One plate of each cell type was treated with CellTiter-Glo (Promega #G7573) for a day 0 proliferation measurement and read as described below. The test compounds were prepared in clear U bottom polypropylene 96 well plates (Falcon #35-1190 with consecutive two fold dilutions. 9 uL of these dilutions was added into each well of the cell plates. The final concentration of DMSO in all wells was 0.15%. Cells were incubated at 37° C., 5% CO2 for 72 h. Following 72 h of incubation with compounds each plate was developed and read. CellTiter-Glo reagent was added to assay plates using a volume equivalent to the cell culture volume in the wells. Plates were shaken for approximately 2 min and incubated at rt for approximately 15 min and the chemiluminescent signal was read on the Victor V or Envison 2100 reader. […] Concentration of compound that inhibited 50% of cell growth (IC50) was analyzed by 4 or 6 parameter fit of data using XLfit, value of no cell addition was substracted from all samples for background.

The target in another assay is T1, PLK1 kinase domain (Homo sapiens, UniProt P53350).
T1 construct: made in house; host or cells: baculovirus infected T. ni cells
T1 sequence (P53350 21-346): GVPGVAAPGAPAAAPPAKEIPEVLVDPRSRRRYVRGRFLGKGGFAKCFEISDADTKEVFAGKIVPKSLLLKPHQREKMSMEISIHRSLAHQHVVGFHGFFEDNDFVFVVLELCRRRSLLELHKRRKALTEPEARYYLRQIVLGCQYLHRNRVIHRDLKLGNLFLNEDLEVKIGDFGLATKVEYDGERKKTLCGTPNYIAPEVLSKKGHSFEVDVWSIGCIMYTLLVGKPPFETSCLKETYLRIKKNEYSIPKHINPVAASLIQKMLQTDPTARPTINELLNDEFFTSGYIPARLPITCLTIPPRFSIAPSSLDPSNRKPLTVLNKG
Put plainly: Assay for Inhibition of PLK1 (SPA, 33P-ATP). The assay is classed as biochemical. Particulars: 2 nM PLK1 kinase domain, 1 μM ATP, 22° C.; read-out: PLK1 pIC50 (converted). Here is the method:
A. Preparation of 6× N-Terminal His-Tagged PLK Kinase Domain
All procedures were performed at 4° C. Cells were lysed in 50 mM HEPES, 200 mM NaCl, 50 mM imidazole, 5% glycerol; pH 7.5. The homogenate was centrifuged at 14K rpm in a SLA-1500 rotor for 1 hr and the supernatant filtered through a 1.2 micron filter. The supernatant was loaded onto a Nickel chelating Sepharose (Amersham Pharmacia) column and washed with lysis buffer. Protein was eluted using 20%, 30% and 100% buffer B steps where buffer B was 50 mM HEPES, 200 mM NaCl, 300 mM imidazole, 5% glycerol; pH 7.5. Fractions containing PLK were determined by SDS-PAGE. Fractions containing PLK were diluted five-fold with 50 mM HEPES, 1 mM DTT, 5% glycerol; pH 7.5, then loaded on an SP Sepharose (Amersham Pharmacia) column. After washing the column with 50 mM HEPES, 1 mM DTT, 5% glycerol; pH 7.5, PLK was step eluted with 50 mM HEPES, 1 mM DTT, 500 mM NaCl; 5% glycerol; pH 7.5. PLK was concentrated using a 10 kDa molecular weight cutoff membrane and then loaded onto a Superdex 200 gel filtration (Amersham Pharmacia) column equilibrated in 25 mM HEPES, 1 mM DTT, 500 mM NaCl, 5% glycerol; pH 7.5. Fractions containing PLK were determined by SDS-PAGE. PLK was pooled, aliquoted and stored at −80° C. Samples were quality controlled using mass spectrometry, N-terminal sequencing and amino acid analysis.
B. Enzyme Activity +/− Inhibitors was Determined as Follows:
All measurements were obtained under conditions where signal production increased linearly with time and enzyme. Test compounds were added to white 384-well assay plates (0.1 μL for 10 μL and some 20 μL assays, 1 μL for some 20 μL assays) at variable known concentrations in 100% DMSO. DMSO (1-5% final, as appropriate) and EDTA (65 mM in reaction) were used as controls.
Reaction Mix (10 or 20 μL) was quickly added to each well immediately following addition of enzyme via automated liquid handlers and incubated 1-1.5 h at 22° C. The 20 μL enzymatic reactions were stopped with 50 μL of stop mix (50 mM EDTA, 4.0 mg/mL Streptavidin SPA beads in Standard Dulbecco's PBS (without Mg^2+ and Ca^2+), 50 μM ATP) per well. The 10 μL reactions were stopped with 10 μL of stop mix (50 mM EDTA, 3.0 mg/mL Streptavidin-coupled SPA Imaging Beads (“LeadSeeker”) in Standard Dulbecco's PBS (without Mg^2+ and Ca^2+), 50 μM ATP) per well. Plates were sealed with clear plastic seals, spun at 500×g for 1 min or settled overnight, and counted in Packard TopCount for 30 seconds/well (regular SPA) or imaged using a Viewlux imager (LeadSeeker SPA). Signal above background (EDTA controls) was converted to percent inhibition relative to that obtained in control (DMSO-only) wells.

Where only a bound is given, the exact number is not on record here.

Consider `C[C@@H](Oc1cc(-n2cnc3cc(-c4ccc(NCCCN5CCN(C)CC5)nc4)ccc32)sc1C(N)=O)c1ccccc1Cl` [Example 31, 3-{[(1R)-1-(2-chlorophenyl)ethyl]oxy}-5-[5-(6-{[3-(4-methyl-1-piperazinyl)propyl]amino}-3-pyridinyl)-1H-benzimidazol-1-yl]-2-thiophenecarboxamide], for which the IC50 in assay [1] is below 500 nM; at PLK1 kinase domain it was below 100 nM.
As to `C[C@@H](Oc1cc(-n2cnc3cc(-c4ccc(NCCN5CCOCC5)nc4)ccc32)sc1C(N)=O)c1ccccc1Cl` [Example 32, 3-{[(1R)-1-(2-chlorophenyl)ethyl]oxy}-5-[5-(6-{[2-(4-morpholinyl)ethyl]amino}-3-pyridinyl)-1H-benzimidazol-1-yl]-2-thiophenecarboxamide], the IC50 in assay [1] is below 500 nM; on PLK1 kinase domain, below 100 nM.
In the same order, the values of `C[C@@H](Oc1cc(-n2cnc3cc(-c4ccc(N(C)CCCN(C)C)nc4)ccc32)sc1C(N)=O)c1ccccc1Cl` [Example 33, 3-{[(1R)-1-(2-chlorophenyl)ethyl]oxy}-5-(5-[6-[[3-(dimethylamino)propyl](methyl)amino]-3-pyridinyl]-1H-benzimidazol-1-yl)-2-thiophenecarboxamide] are below 500 nM and below 100 nM.
Turning to `C[C@@H](Oc1cc(-n2cnc3cc(-c4ccc(NCCCN5CCN(C)CC5)nn4)ccc32)sc1C(N)=O)c1ccccc1Cl` [Example 34, 3-{[(1R)-1-(2-chlorophenyl)ethyl]oxy}-5-[5-(6-{[3-(4-methyl-1-piperazinyl)propyl]amino}-3-pyridazinyl)-1H-benzimidazol-1-yl]-2-thiophenecarboxamide], the IC50 in assay [1] is 500 to 1000 nM; on PLK1 kinase domain it was below 100 nM.
